From PubChem BioAssay (NCI) come the findings set out here.

Experiment in all cases: NCI anticancer screen, dose series, 48 h
The test system of assay [1] is 786-0 renal.
The test system of assay [2] is A498 renal.
Assay [3] relates to HCT-15 colon.
Assay [4] deals with HL-60(TB) leukemia.
Assay [5] concerns HOP-92 NSCLC.
The test system of assay [6] is HS 578T breast.
Assay [7] concerns IGROV1 ovarian.
In assay [8] the test system is K-562 leukemia.
The test system of assay [9] is KM12 colon.
Assay [10] deals with LOX IMVI melanoma.
Assay [11] relates to MDA-MB-435.
Assay [12] deals with MOLT-4 leukemia.
In assay [13] the test system is OVCAR-5 ovarian.
Assay [14] has as its system OVCAR-8 ovarian.
The test system of assay [15] is SNB-75 CNS.
Assay [16] deals with TK-10 renal.
Assay [17] has as its system SNB-19 CNS.

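Method: 48-hour compound exposure of cells in 96-well plates, five concentrations, linear interpolation of endpoints. TGI: concentration producing complete growth inhibition.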

In the case of `CC1(C)S[C@H](CN)N[C@H]1C(=O)OC(c1ccccc1)c1ccccc1`, the TGI in [1] is more than 100 µM; in assay [2] it was 70.4 µM; in assay [3], more than 100 µM; in assay [4] it was 35.7 µM; in [5], 91.6 µM; in [6], more than 100 µM. Also, the TGI was more than 100 µM in assay [7]; 55.8 µM in assay [8]; more than 100 µM in assay [9]; 33.8 µM in [10]; more than 100 µM in assay [11]; 74.9 µM in assay [12]. Also, the TGI in [13], in [14], in [15] and in [16] was more than 100 µM throughout.
Take `CC(=O)C1(C)CC(C#N)(C#N)C(C#N)=C1N` (stereo unspecified): the TGI is more than 100 µM in assay [1]; more than 100 µM in assay [2]; more than 100 µM in assay [3]; more than 100 µM in [4]; 55.3 µM in assay [5]; more than 100 µM in [6]. In addition, the TGI in [7], in [8], in assay [9], in assay [10], in assay [11] and in assay [12] was more than 100 µM throughout. The TGI in assay [13], in assay [14], in assay [17], in assay [15] and in assay [16] was more than 100 µM each time.
Regarding `O=[N+]([O-])c1ccc(C2=NOC(c3ccc(Cl)cc3)N2C23CC4CC(CC(C4)C2)C3)cc1` (stereo unspecified), the TGI in assay [1], in assay [2], in [3], in [4], in assay [5] and in assay [6] was more than 100 µM each time. For the same compound, the TGI in assay [7], in assay [8], in [9], in assay [10], in assay [11] and in assay [12] was more than 100 µM in each case. Moreover, the TGI in assay [14], in [17], in assay [15] and in assay [16] was more than 100 µM throughout.
As for `NC(=O)NNCc1c(-c2ccccc2)no[n+]1[O-]`, the TGI in assay [1], in [2], in assay [3], in assay [4], in assay [5] and in assay [6] was more than 100 µM each time. The TGI in assay [7], in assay [8], in [9], in assay [10], in [11] and in assay [12] was more than 100 µM each time. Also, the TGI in [13], in assay [14], in assay [17], in assay [15] and in [16] was more than 100 µM throughout.
Turning to `O=C(Cn1c(=O)oc2ccc(C(=O)c3ccc(F)cc3)cc21)c1ccccc1`, the TGI is more than 100 µM in assay [1]; 93.3 µM in assay [2]; more than 100 µM in [3]; more than 100 µM in [4]; more than 100 µM in [5]; more than 100 µM in assay [6]. Besides, the TGI in [7], in assay [8], in assay [9], in assay [10], in assay [11] and in [12] was more than 100 µM in each case. Besides, the TGI in assay [13], in [14], in [17], in assay [15] and in assay [16] was more than 100 µM throughout.
Consider `COC1CC(C)([N+](=O)[O-])C(O)C(C)O1` (stereo unspecified), for which the TGI in [1], in assay [2], in [3], in [4], in assay [5] and in [6] was more than 100 µM throughout. Also, the TGI in assay [7], in assay [8], in assay [9], in assay [10], in assay [11] and in assay [12] was more than 100 µM each time. Further, the TGI in [13], in assay [14], in assay [17], in assay [15] and in assay [16] was more than 100 µM throughout.
For the compound `Cc1nc(C)c(N2CCN(C(=O)O)CC2)c(=O)[nH]1`, the TGI in assay [1], in assay [2], in [3], in assay [4], in assay [5] and in assay [6] was more than 100 µM each time. Further, the TGI in [7], in [8], in [9], in assay [10], in [11] and in assay [12] was more than 100 µM each time. Also, the TGI in [14], in [17] and in assay [16] was more than 100 µM in each case.
As for `CCO/C(O)=C(/C(=N)N1CCCC1)C(=O)Nc1cccc(Cl)c1`, the TGI in [1], in assay [2], in [3], in assay [4], in assay [6] and in [7] was more than 100 µM each time. Also, the TGI in assay [8], in [9], in assay [10], in [11], in assay [12] and in assay [13] was more than 100 µM each time. In addition, the TGI in assay [14], in assay [17], in assay [15] and in assay [16] was more than 100 µM throughout.
